Source: patent US20130072424A1, “COMPOUNDS AND METHODS FOR PEPTIDE RIBONUCLEIC ACID CONDENSATE PARTICLES FOR RNA THERAPEUTICS” (MARINA BIOTECH, INC., priority 2005, published 2013)
Ends that are not written are not given here.

How the values were obtained:
[1] = tested on: primary mouse tail fibroblast (MTF) cells; assay: Peptide cell-uptake assay (FITC-labeled peptide, flow cytometry); format: cell-based; settings: for Peptide FITC MFI: relative values
Procedure: The efficacy of the full-length and truncated forms of polypeptide PN73 to enter cells was tested in vitro by a cell-uptake assay with primary mouse tail fibroblast (MTF) cells. The number of cells in culture that receive the FITC-labeled peptide was measured by flow cytometry. The percentage peptide cell-uptake was expressed relative to the total number of cells present in the culture. In addition, the Mean Fluorescence Intensity (MFI) was used to evaluate the quantity of FITC-labeled peptide found within cells. MFI directly correlates with the amount of FITC-labeled peptide within the cell: higher relative MFI value correlates with a greater amount of intracellular FITC-labeled peptides. Peptides were evaluated at 0.63 μM, 2.5 μM and 10 μM concentrations; PN768 was tested at 2 μM, 10 μM and 50 μM. […]

[2] = tested on: mouse tail fibroblast (MTF) cells; assay: siRNA cell-uptake assay and MFI (Cy5-conjugated siRNA, flow cytometry), Examples 14-16; format: cell-based
Procedure: As described above, the cell-uptake assay determines the number of cells that receive Cy5-conjugated siRNA when complexed with a peptide. siRNA cell-uptake was assessed by flow cytometry (refer to Example 2 for details). Uptake was expressed as a percentage calculated by dividing the number of cells containing Cy5-conjugated siRNA by the total number of transfected and untransfected cells in culture. Mean Fluorescence Intensity (MFI) was measured by flow cytometry and determined the amount of Cy5-conjugated siRNA found within cells. The MFI value directly correlates with the amount of Cy5-conjugated siRNA within the cell, thus, a higher MFI value indicates a greater number of Cy5-conjugated siRNA within the cells.
The siRNA cell-uptake assay and MFI measurements were performed as described previously in Examples 2 and 3. […]

hTNF-α mRNA = assay: Knockdown of hTNF-α gene expression by siRNA/peptide complexes in LPS-stimulated human monocytes (branch DNA mRNA); format: cell-based; settings: human monocytes
Procedure: Specifically, the ability of siRNA/peptide complexes to modulate expression of the human tumor necrosis factor-α (hTNF-α) gene was assessed. The significance of targeting the hTNF-α gene is that it is implicated in mediating the occurrence or progression of rheumatoid arthritis (RA) when over-expressed in human and other mammalian subjects.
Human monocytes were used as a model system to determine the effect of siRNA/peptide complexes on hTNF-α gene expression. Qneg represents a random siRNA sequence and functioned as the negative control. […] A19S21, 21/21 and LC20 are siRNAs that target hTNF-α mRNA.
Healthy human blood was purchased from Golden West Biologicals (CA), the peripheral blood mononuclear cells (PBMC) were purified from the blood using Ficoll-Pague plus (Amersham) gradient. Human monocytes were then purified from the PBMCs fraction using magnetic microbeads from Miltenyi Biotech. Isolated human monocytes were resuspended in IMDM supplemented with 4 mM glutamine, 10% FBS, 1× non-essential amino acid and 1× pen-strep, and stored at 4 C until use.
In a 96 well flat bottom plate, human monocytes were seeded at 100 K/well/100 μl in OptiMEM medium (Invitrogen). Exemplary polynucleotide delivery-enhancing polypeptides were mixed with 20 nM siRNA at a molar ratio of 1 to 5 in OptiMEM medium at room temperature for 5 minutes. At the end of incubation, FBS was added to the mixture (final 3%), and 50 μl of the mixture was added to the cells. The cells were incubated at 37° C. for 3 hours. After incubation, the cells were transferred to V-bottom plate and pelleted at 1500 rpm for 5 min. The cells were resuspended in growth medium (IMDM with glutamine, non-essential amino acid, and pen-strep). After an overnight incubation, the monocytes were stimulated by application of LPS (Sigma) at 1 ng/ml for 3 hours to increase expression of TNF-α expression levels. After induction by LPS, cells were collected as above for mRNA quantification, and supernatant was saved for protein quantification if desired.
For mRNA measurement, branch DNA technology from Genospectra (CA) was used according to manufacturer's specification. To quantitate mRNA level in the cells, both house keeping gene (cypB) and target gene (TNF-α) mRNA were measured, and the reading for TNF-α was normalized with cypB to obtain relative luminescence unit. […]

in vitro = settings: mouse, mouse tail fibroblast (MTF) cells
Procedure: Fluorescence activated cell sorting (FACS) analysis were performed using Beckman Coulter FC500 cell analyzer (Fullerton, Calif.). The instrument was adjusted according to the fluorescence probes used (FAM or Cy5 for siRNA and FITC and PE for CD14). Propidium iodide (Fluka, St Louis) and AnnexinV (R&D systems, Minneapolis) were used as indicators for cell viability and cytotoxicity. A brief step-by-step protocol is detailed below. • (a) After exposure to the complex of siRNA/peptide, cells were incubated for at least 3 hours. • (b) Wash cells with 200 μl PBS. • (c) Detach cells with 15 μl TE, incubate at 370 C. • (d) Re-suspend cells in five wells with 30 μl FACS solution (PBS with 0.5% BSA, and 0.1% sodium Azide). • (e) Combine all five wells into a tube. • (f) Add PI (Propidium iodide) 5 μl into each tube. • (g) Analyze the cells with fluorescence activated cell sorting (FCAS) according to manufacturer's instructions.
For siRNA uptake analysis, cells were washed with PBS, treated with trypsin (attached cells only), and then analyzed by flow cytometry. […] In order to differentiate the cellular uptake from the membrane insertion of fluorescence labeled siRNA, trypan blue was used to quench the fluorescence on the cell membrane surface.
FITC-tagged peptides were diluted in Opti-MEM® media (Invitrogen) for about 5 minutes at room temperature and then added to cells. Cells were transfected for 3 hours at and washed with PBS, treated with trypsin, and then analyzed by flow cytometry. Cell viability was determined as above. Cellular uptake was distinguished from the membrane insertion using trypan blue to quench any fluorescence on the cell membrane surface.

[3] = PN73 mutant series, peptide 0.63 μM
[4] = PN73 mutant series, peptide 1.25 μM
[5] = PN73 mutant series, peptide 2.5 μM
[6] = PN73 mutant series, peptide 5 μM

Compound	% siRNA Cell-Uptake ([2]; peptide 10 μM)	siRNA Cy5 MFI ([2]; peptide 10 μM, relative values)	% Peptide Cell-Uptake ([1]; peptide 10 μM)	Peptide FITC MFI ([1]; peptide 10 μM)	% siRNA Cell-Uptake [2, 3] [%]	siRNA Cy5 MFI [2, 3]	% siRNA Cell-Uptake [2, 4] [%]	siRNA Cy5 MFI [2, 4]	% siRNA Cell-Uptake [2, 5] [%]	siRNA Cy5 MFI [2, 5]	% siRNA Cell-Uptake [2, 6] [%]	siRNA Cy5 MFI [2, 6]	viability at 0.63 µM (in vitro) [%]	viability at 1.25 µM (in vitro) [%]	viability at 2.5 µM (in vitro) [%]	viability at 5 µM (in vitro) [%]	other results
KVLKQ-GK[EPSILON-5CFG-amide [PN768]																	% Peptide Cell-Uptake ([1]; peptide 50 µM): 91 (50 µM) %; Peptide FITC MFI ([1]; peptide 50 μM): 9 (50 μM)
SYSVYVYKVLKQ-GK[EPSILON-5CFG-amide (SYSVYVYKVLKQG-{K(5CF)-Gly-NH2}) [PN653]	1.7 (10 μM) %	4 (10 μM)	95 (10 μM) %	8 (10 μM)													KD (hTNF-α mRNA; knockdown of hTNF-α mRNA vs Qneg, siRNAs A19S21, 21/21, LC20 at 20 nM, molar ratio 1 to 5): −
KGSFKAVTKAQKKFGKKRKRSRKSFSVYVYKVLKQ-NH2 [PN729]					61	4	69	10	79	16	86	30	82	91	92	90	
KRSRKESYSVYVYKVLKQ-GK[EPSILON-5CFG-amide (KRSRKESYSVYVYKVLKQG-{K(5CF)-Gly-NH2}) [PN654]	27 (10 μM) %	14 (10 μM)	95 (10 μM) %	10 (10 μM)													siRNA knockdown activity of TNF-α mRNA, in words (hTNF-α mRNA; siRNAs A19S21, 21/21 and LC20): moderate knockdown activity for both the A19S21 and 21/21 siRNAs but not for the LC20 siRNA
VYVYKVLKQ-GK[EPSILON-5CFG-amide (VYVYKVLKQG-{K(5CF)-Gly-NH2}) [PN652]	1.8 (10 μM) %	5 (10 μM)	86 (10 μM) %	5 (10 μM)													
YKVLKQ-GK[EPSILON-5CFG-amide [PN651]			90 (10 μM) %	5 (10 μM)													% siRNA Cell-Uptake ([2]; no peptide concentration printed): 0%; siRNA Cy5 MFI ([2]; peptide .65 μM, relative values): 3 (.65 μM)
CC(C)C[C@H](NC(=O)[C@@H](NC(=O)[C@H](CCCCN)NC(=O)[C@H](Cc1ccc(O)cc1)NC(=O)[C@@H](NC(=O)[C@H](Cc1ccc(O)cc1)NC(=O)[C@@H](NC(=O)[C@H](Cc1c[nH]c2ccccc12)NC(=O)[C@H](Cc1ccc(O)cc1)NC(=O)[C@H](CO)NC(=O)[C@H](CCC(=O)O)NC(=O)[C@H](CCCCN)NC(=O)[C@H](CCCNC(=N)N)NC(=O)[C@H](CO)NC(=O)[C@H](CCCNC(=N)N)NC(=O)[C@H](CCCCN)NC(=O)[C@H](CCCNC(=N)N)NC(=O)[C@H](CCCCN)NC(=O)[C@H](CCCCN)NC(=O)CNC(=O)[C@H](CC(=O)O)NC(=O)[C@H](CCCCN)NC(=O)[C@H](CCCCN)NC(=O)[C@H](CCC(N)=O)NC(=O)[C@H](C)NC(=O)[C@H](CCCCN)NC(=O)[C@@H](NC(=O)[C@@H](NC(=O)[C@H](C)NC(=O)[C@H](CCCCN)NC(=O)[C@H](CCCCN)NC(=O)[C@H](CO)NC(=O)CNC(=O)[C@@H](N)CCCCN)C(C)C)[C@@H](C)O)C(C)C)C(C)C)C(C)C)C(=O)N[C@@H](CCCCN)C(=O)N[C@@H](CCC(N)=O)C(N)=O [PN644]					67	4	71	8	70	24	83	37	88	90	86	87	
KGSFKAVTKAQKKDGKKRKRSFKFSYSVYVYKVLKQ-NH2 [PN647]					71	13	74	34	83	39	85	41	85	83	88	87	
CC(C)C[C@H](NC(=O)[C@@H](NC(=O)[C@H](CCCCN)NC(=O)[C@H](Cc1ccc(O)cc1)NC(=O)[C@@H](NC(=O)[C@H](Cc1ccc(O)cc1)NC(=O)[C@@H](NC(=O)[C@H](CO)NC(=O)[C@H](Cc1ccc(O)cc1)NC(=O)[C@H](CO)NC(=O)[C@H](Cc1c[nH]c2ccccc12)NC(=O)[C@H](CCCCN)NC(=O)[C@H](CCCNC(=N)N)NC(=O)[C@H](CO)NC(=O)[C@H](CCCNC(=N)N)NC(=O)[C@H](CCCCN)NC(=O)[C@H](CCCNC(=N)N)NC(=O)[C@H](CCCCN)NC(=O)[C@H](CCCCN)NC(=O)CNC(=O)[C@H](CC(=O)O)NC(=O)[C@H](CCCCN)NC(=O)[C@H](CCCCN)NC(=O)[C@H](CCC(N)=O)NC(=O)[C@H](C)NC(=O)[C@H](CCCCN)NC(=O)[C@@H](NC(=O)[C@@H](NC(=O)[C@H](C)NC(=O)[C@H](CCCCN)NC(=O)[C@H](CCCCN)NC(=O)[C@H](CO)NC(=O)CNC(=O)[C@@H](N)CCCCN)C(C)C)[C@@H](C)O)C(C)C)C(C)C)C(C)C)C(=O)N[C@@H](CCCCN)C(=O)N[C@@H](CCC(N)=O)C(N)=O [PN645]					68	5	70	11	78	21	88	28	84	89	90	90	
CC(C)C[C@H](NC(=O)[C@@H](NC(=O)[C@H](CCCCN)NC(=O)[C@H](Cc1ccc(O)cc1)NC(=O)[C@@H](NC(=O)[C@H](Cc1ccc(O)cc1)NC(=O)[C@@H](NC(=O)[C@H](CO)NC(=O)[C@H](Cc1ccc(O)cc1)NC(=O)[C@H](CO)NC(=O)[C@H](Cc1ccccc1)NC(=O)[C@H](CCCCN)NC(=O)[C@H](CCCNC(=N)N)NC(=O)[C@H](CO)NC(=O)[C@H](CCCNC(=N)N)NC(=O)[C@H](CCCCN)NC(=O)[C@H](CCCNC(=N)N)NC(=O)[C@H](CCCCN)NC(=O)[C@H](CCCCN)NC(=O)CNC(=O)[C@H](CC(=O)O)NC(=O)[C@H](CCCCN)NC(=O)[C@H](CCCCN)NC(=O)[C@H](CCC(N)=O)NC(=O)[C@H](C)NC(=O)[C@H](CCCCN)NC(=O)[C@@H](NC(=O)[C@@H](NC(=O)[C@H](C)NC(=O)[C@H](CCCCN)NC(=O)[C@H](CCCCN)NC(=O)[C@H](CO)NC(=O)CNC(=O)[C@@H](N)CCCCN)C(C)C)[C@@H](C)O)C(C)C)C(C)C)C(C)C)C(=O)N[C@@H](CCCCN)C(=O)N[C@@H](CCC(N)=O)C(N)=O [PN646]					67	4	70	10	73	24	88	24	81	85	87	92	
